Article PMC9867241, “Antioxidant and Cytotoxic Activity of New Polyphenolic Derivatives of Quinazolin-4(3H)-one: Synthesis and In Vitro Activities Evaluation” (Pharmaceutics, 2022)
In brackets after ≈: the same amount, converted by molar mass.

Key:
[1] = test system: normal human foreskin fibroblasts (BJ); test: Cytotoxicity, Alamar blue assay, BJ cells; format: cell-based
Excerpt: Normal human foreskin (BJ) fibroblasts and two types of cancer cells, namely A549 (lung adenocarcinoma) and LNCaP (prostate carcinoma) purchased from American Type Culture Collection (Manassas, VA, USA), were used in the experiments. Each cell line was maintained in a different culture medium, depending on the metabolic necessities of the cells. BJ cells were maintained in Dulbecco’s modified Eagle’s medium (DMEM) with low glucose. A549 cells were maintained in DMEM with high glucose […], while LNCaP cells were grown in Roswell Park Memorial Institute (RPMI) 1640 medium with high glucose (5 g/L). All media used were supplemented with 10% fetal bovine serum (FBS) and were refreshed every two days. Cells were used in experiments or subcultured when they reached 70–80% confluence.
In 100 µL in 96-well plates, a number of 30,000 LNCaP cells, 15,000 A549 cells, and 7500 normal (BJ) cells were seeded. Because the cells have different sizes and volumes, the purpose of the different seedings was to achieve a confluency of 70–80% after 24 h. All types of cells were further exposed to the synthesized compounds (5a–d and 6a–d) for 24 h, at a concentration ranging from 12.5 to 100 µg/mL. Post-exposure, the media were removed, and the cells were washed with phosphate buffer saline (PBS). Their viability was evaluated using Alamar blue (AB) assay as previously described. Briefly, the cells were incubated with a 200 µM resazurin solution for 4 h. Using a Synergy 2 multi-mode microplate reader, we measured the fluorescence. The measurement was performed at λexcitation = 530/25 nm; λemission = 590/35 nm. We conducted the experiments using three biological replicates, each one including 6 technical replicates. As negative controls (NC), cells exposed to culture medium containing 0.2% DMSO were used. Compared to the NC (100%), the results were expressed as relative values. We used IC50 values for the potency evaluation, and calculated them for each cell line, using the dose-effect curves obtained by fitting the experimental data with a 4-parameter logistic curve.
Mean values ± standard deviation (SD) values of at least three biological replicates were used to calculate experimental data. One-way analysis of variance (ANOVA) with a post hoc Holm–Sidak test was used to statistically examine the data. Using SigmaPlot 11.0 software (Systat, Software Inc., Chicago, IL, USA), we performed the graphical display and data analysis. From a statistical point of view, the results were considered different, at values of p < 0.05.

[2] = Molecular properties computed with SwissADME; details: ratio of computed water solubilities
Excerpt: In order to obtain preliminary information regarding molecular properties which could influence the pharmacokinetics of the compounds, we obtained them using SwissADME [44]. The evaluated molecular properties were the topological polar surface area (TPSA), octanol–water partition coefficient expressed as Moriguchi’s LogP [46], water solubility and violations of the Lipinski’s rule of five.

[3] = Phosphomolybdate assay for total antioxidant capacity (TAC); set-up: concentration or dose not given beside the values
Excerpt: Using the phosphomolybdate assay, we determined the total antioxidant capacity (TAC) of the tested compounds. We measured the solutions’ absorbances against a blank sample at λ = 695 nm, using a previously reported procedure by our group, based on initial literature reports. Using Equation (4), we calculated the TAC of 5a–d and 6a–d compounds.
At acidic pH, the tested compounds transfer one electron to Mo^6+ to reduce it to Mo^5+.

[4] = ABTS˙+ radical scavenging assay
Procedure: The stock solutions (1 mg/mL) of the tested compounds and the controls were obtained, by dissolving the substances in dimethyl sulfoxide (DMSO). Using Jasco V-530, an UV-VIS spectrophotometer (Jasco International Co., Ltd., Tokyo, Japan), we performed the colorimetric determinations in low-volume single-use 10 mm width cuvettes.
The assays were performed in triplicate and the results are presented as averages for each assay.

[5] = Ferric reducing antioxidant potential (FRAP) assay; set-up: concentration or dose not given beside the values
Procedure: In the ferric reducing antioxidant potential (FRAP) assay, in comparison with a blank sample prepared from DMSO mixed with FRAP reagent, the absorbance of the solutions was measured at λ = 593 nm. The compounds were tested according to a modified method proposed initially by Benzie and Strain [31]. Using Equation (4), we calculated the reducing antioxidant potential of 5a–d and 6a–d as a percentage of the activity of the reference compounds:(4) % of control activity=sample absorbance/reference absorbance×100
Ferrous ions resulting from the reduction of ferric ions in the presence of an antioxidant compound form a blue-colored complex (Fe^2+-TPTZ) at pH = 3.6 with tripyridyltriazine (2,4,6-tris(2-pyridyl)-s-triazine). The intensity of the blue complex formed is proportional to the number of ferrous ions. Compounds 5a, 5c and 5d expressed a good electron donation capacity.

[6] = Cu^2+ chelation assay (murexide competition)
Excerpt: With murexide as a chromophoric chelator, we performed the protocol followed for the evaluation of Cu^2+ chelating activities of the compounds using an adaptation of the method presented by Cesari et al. and Wu et al.. Using Equation (6), we calculated the copper chelation capacities of the 5a–d and 6a–d compounds:(6) copper chelation (%)=(A485/A520)control−(A485/A520)sample/(A485/A520)control×100
The evaluation of the Cu^2+ chelation activity of compounds was made based on the competition for Cu^2+ with murexide. The chelating activity of compounds for the cupric ions found in the current assay is significant for the pyrogallol derivatives, being quite close to EDTA-Na2.

times more soluble in water than 6b [2]: 24 times
melting point: 208 °C
IC50 [4]: 3.86 µM
IC50 (ABTS˙^+ scavenging) [4]: 1.60 µg/mL (≈ 3.86 µM)
Compound: CCn1c(SCC(=O)NN=Cc2ccc(O)c(O)c2O)nc2ccccc2c1=O [Compound 5c, 2-((3-Ethyl-4-oxo-3,4-dihydroquinazolin-2-yl)thio)-N’-(2,3,4-trihydroxybenzylidene)acetohydrazide]
IC50 ([1]; Homo sapiens, Fibroblast, 24 h exposure, Alamar blue): > 100 µg/mL
decrease of cellular viability in BJ cells ([1]; highest concentration tested, 24 h): approximately 40%
TAC, % of Activity of Trolox ([3]; relative to Trolox): 163.49%
TAC, % of Activity of Ascorbic Acid ([3]; relative to ascorbic acid): 84.73%
% of ABTS˙^+ Scavenging ([4]; 0.83 µg/mL): 39.05%
% of ABTS˙^+ Scavenging ([4]; 1.67 µg/mL): 52.25%
% of ABTS˙^+ Scavenging ([4]; 3.33 µg/mL): 72.57%
% of ABTS˙^+ Scavenging ([4]; 4.99 µg/mL): + (+ represents more than 95%)
% of ABTS˙^+ Scavenging ([4]; 6.66 µg/mL): + (+ represents more than 95%)
% of ABTS˙^+ Scavenging ([4]; 9.99 µg/mL): + (+ represents more than 95%)
% of ABTS˙^+ Scavenging ([4]; 13.32 µg/mL): + (+ represents more than 95%)
FRAP, % of Activity of Trolox ([5]; relative to Trolox): 95.70%
FRAP, % of Activity of Ascorbic Acid ([5]; relative to ascorbic acid): 83.40%
Cupric ions Chelation Capacity (%) ([6]; 3.36 µg/mL): 13.06%
Cupric ions Chelation Capacity (%) ([6]; 8.40 µg/mL): 23.23%
Cupric ions Chelation Capacity (%) ([6]; 16.80 µg/mL): 32.60%
